Data on 11 compounds can be found in patent publication US20250215010A1, “DIAZABICYCLOOCTANE DERIVATIVES USEFUL AS MATRIX METALLOPROTEINASE INHIBITORS” (VASA THERAPEUTICS SPOLKA Z OGRANICZONA ODPOWIEDZIALNOSCIA, priority 2022, published 2025).

pIC50: −log10 of the molar value. Like-named read-outs stand apart in the source and are kept apart here.

Common to all, as to type: biochemical
Test [1] has as its target ADAM17 (TACE) (Homo sapiens, UniProt P78536). Description: TACE fluorometric inhibition assay (Enzo kit BML-AK310). As for the experimental part:
(§1) The inhibitory activities of the compounds of the invention were assessed in 96-well microplate format using MMP1, MMP2, MMP9 and MMP13 colorimetric assay kits and TACE fluorometric assay kit from Enzo Life Sciences, Inc. The inhibitory effect of the compounds of the invention on ADAM10 activity were evaluated in 96-well microplate format using fluorometric assay from AnaSpec, Inc.
The TACE Fluorometric Drug Discovery Kit (catalog #BML-AK310) is a complete assay system designed to screen ADAM17 (TACE) inhibitors using a quenched fluorogenic peptide: Mca-PLAQAV-Dpa-RSSSR—NH2. Mca fluorescence is quenched by the Dpa group until cleavage by proteases separates the two moieties leading to an increase in Mca fluorescence.
The inhibitory activity of the compounds of the invention against TACE was tested according to the manufacturer's assay protocol and the fluorescence was monitored at excitation/emission wavelengths=320 nm/420 nm using Tecan Infinite® 200 Pro F Nano^+ microplate reader.
(§2) The normalized values were analyzed using GraphPadPrism 9 for Windows (GraphPad Software, San Diego, CA, USA) software by plotting inhibition curves and determining the IC50 values (in nM).

Test [2] concerns the target T1, MMP2 (Homo sapiens, UniProt P08253).
T1 sequence (P08253 110-660): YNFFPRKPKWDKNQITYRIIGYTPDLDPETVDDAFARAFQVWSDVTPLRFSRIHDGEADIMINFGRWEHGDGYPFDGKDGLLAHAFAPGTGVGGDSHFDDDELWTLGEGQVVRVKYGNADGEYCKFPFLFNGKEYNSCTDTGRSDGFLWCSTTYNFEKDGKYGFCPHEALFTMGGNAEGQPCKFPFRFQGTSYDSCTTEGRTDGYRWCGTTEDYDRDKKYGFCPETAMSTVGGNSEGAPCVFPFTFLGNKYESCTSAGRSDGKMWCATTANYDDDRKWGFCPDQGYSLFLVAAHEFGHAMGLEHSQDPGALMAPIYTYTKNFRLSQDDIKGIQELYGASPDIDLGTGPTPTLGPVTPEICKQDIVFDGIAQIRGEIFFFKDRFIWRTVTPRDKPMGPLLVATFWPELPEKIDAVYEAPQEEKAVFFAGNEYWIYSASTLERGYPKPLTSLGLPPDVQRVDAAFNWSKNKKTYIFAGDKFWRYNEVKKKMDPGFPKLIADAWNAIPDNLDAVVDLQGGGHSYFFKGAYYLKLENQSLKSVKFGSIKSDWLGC
Description: MMP-2 colorimetric inhibition assay (Enzo kit BML-AK408). As for the experimental part:
as §1
The MMP-2 Colorimetric Drug Discovery Kit (catalog #BML-AK408) is a complete assay system designed to screen MMP-2 inhibitors using a thiopeptide as a chromogenic substrate (Ac-PLG-[2-mercapto-4-methylpentanoyl]-LG-OC2H5). The MMP cleavage site peptide bond is replaced by a thioester bond in the thiopeptide. Hydrolysis of this bond by an MMP produces a sulfhydryl group, which reacts with DTNB [5,5′-dithiobis(2-nitrobenzoic acid), Ellman's reagent] to form 2-nitro-5-thiobenzoic acid, that can be detected spectrophotometrically.
(§3) The inhibitory activities of the compounds of the invention against MMP1, MMP2, MMP9 and MMP13 were tested according to the manufacturer's assay protocols and the absorbance at 415 nm was monitored using the Tecan Infinite® 200 Pro F Nano^+ microplate reader.
as §2

In test [3] the target is T2, MMP1 (Homo sapiens, UniProt P03956).
T2 sequence (P03956 100-269 limits assumed): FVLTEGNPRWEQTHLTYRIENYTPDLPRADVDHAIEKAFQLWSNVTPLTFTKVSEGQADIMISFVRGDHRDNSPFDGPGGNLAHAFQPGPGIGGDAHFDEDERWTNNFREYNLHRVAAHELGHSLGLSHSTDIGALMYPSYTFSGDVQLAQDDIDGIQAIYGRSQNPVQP
Description: MMP-1 colorimetric inhibition assay (Enzo kit BML-AK404). How it is done:
as §1
The MMP-1 Colorimetric Drug Discovery Kit (catalog #BML-AK404) is a complete assay system designed to screen inhibitors of matrix metalloproteinase-1 using a thiopeptide as a chromogenic substrate (Ac-PLG-[2-mercapto-4-methylpentanoyl]-LG-OC2H5). The MMP cleavage site peptide bond is replaced by a thioester bond in the thiopeptide. Hydrolysis of this bond by an MMP produces a sulfhydryl group, which reacts with DTNB [5,5′-dithiobis(2-nitrobenzoic acid), Ellman's reagent] to form 2-nitro-5-thiobenzoic acid, that can be detected spectrophotometrically.
as §3, §2

Test [4] concerns the target T3, MMP13 (Homo sapiens, UniProt P45452).
T3 construct: purchased Enzo Life Sciences, Inc. BML-AK412
Kind of test: MMP-13 colorimetric inhibition assay (Enzo kit BML-AK412). How it is done: as §1
The MMP-13 Colorimetric Drug Discovery Kit (catalog #BML-AK412) is a complete assay system designed to screen inhibitors of matrix metalloproteinase-13 using a thiopeptide as a chromogenic substrate (Ac-PLG-[2-mercapto-4-methylpentanoyl]-LG-OC2H5). The MMP cleavage site peptide bond is replaced by a thioester bond in the thiopeptide. Hydrolysis of this bond by an MMP produces a sulfhydryl group, which reacts with DTNB [5,5′-dithiobis(2-nitrobenzoic acid), Ellman's reagent] to form 2-nitro-5-thiobenzoic acid, that can be detected spectrophotometrically.
as §3, §2

Test [5] addresses MMP9 (Homo sapiens, UniProt P14780). Kind of test: MMP-9 colorimetric inhibition assay (Enzo kit BML-AK410). As for the experimental part: as §1
The MMP-9 Colorimetric Drug Discovery Kit (catalog #BML-AK410) is a complete assay system designed to screen inhibitors of matrix metalloproteinase-9 using a thiopeptide as a chromogenic substrate (Ac-PLG-[2-mercapto-4-methylpentanoyl]-LG-OC2H5). The MMP cleavage site peptide bond is replaced by a thioester bond in the thiopeptide. Hydrolysis of this bond by an MMP produces a sulfhydryl group, which reacts with DTNB [5,5′-dithiobis(2-nitrobenzoic acid), Ellman's reagent] to form 2-nitro-5-thiobenzoic acid, that can be detected spectrophotometrically.
as §3, §2

The mark [6] stands for this setting: quenched fluorogenic peptide, ex/em 320/420 nm, read-out: TACE IC50 class.
[7] abbreviates: thiopeptide substrate, absorbance 415 nm, read-out: MMP 2 IC50 class.
The mark [8] stands for this setting: thiopeptide substrate, absorbance 415 nm, read-out: MMP 1 IC50 class.
[9] abbreviates: thiopeptide substrate, absorbance 415 nm, read-out: MMP 13 IC50 class.
Setting [10] is: thiopeptide substrate, absorbance 415 nm, read-out: MMP 9 IC50 class.

Sequence of MMP9 (P14780 94-707): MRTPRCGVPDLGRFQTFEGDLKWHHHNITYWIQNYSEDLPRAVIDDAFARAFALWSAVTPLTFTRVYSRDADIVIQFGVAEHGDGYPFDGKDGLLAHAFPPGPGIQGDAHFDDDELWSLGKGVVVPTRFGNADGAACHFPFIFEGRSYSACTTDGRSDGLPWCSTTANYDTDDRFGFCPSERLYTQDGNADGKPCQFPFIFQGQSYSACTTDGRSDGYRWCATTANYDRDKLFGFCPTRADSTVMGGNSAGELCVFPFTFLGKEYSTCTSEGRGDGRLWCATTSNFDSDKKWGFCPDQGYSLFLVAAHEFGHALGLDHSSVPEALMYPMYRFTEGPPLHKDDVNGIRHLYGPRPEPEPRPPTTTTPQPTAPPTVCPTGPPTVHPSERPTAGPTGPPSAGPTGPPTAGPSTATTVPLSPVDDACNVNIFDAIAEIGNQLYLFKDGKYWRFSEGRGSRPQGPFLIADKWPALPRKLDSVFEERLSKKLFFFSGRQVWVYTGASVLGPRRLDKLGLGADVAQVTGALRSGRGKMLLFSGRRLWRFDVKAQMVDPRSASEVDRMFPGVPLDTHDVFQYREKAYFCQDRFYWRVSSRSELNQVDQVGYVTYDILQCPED
Sequence of ADAM17 (TACE) (P78536 215-477 limits assumed): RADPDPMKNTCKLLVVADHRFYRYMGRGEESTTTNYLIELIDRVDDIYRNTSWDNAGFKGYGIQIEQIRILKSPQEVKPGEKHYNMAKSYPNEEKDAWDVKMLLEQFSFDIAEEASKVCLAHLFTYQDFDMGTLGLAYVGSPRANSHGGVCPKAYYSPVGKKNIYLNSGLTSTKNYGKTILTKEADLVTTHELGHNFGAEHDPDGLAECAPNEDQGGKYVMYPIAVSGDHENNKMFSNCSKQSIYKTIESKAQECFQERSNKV

A word on the pIC50: it is the negative decadic logarithm of the IC50, by convention in mol/L. For `COCCOC(=O)N1[C@@H]2CC[C@H]1[C@H](C(=O)NO)N(S(=O)(=O)c1ccc(Oc3ccc(OCF)cc3)nc1)C2` [Example 43, 2-methoxyethyl (1S,2R,5R)-3-((6-(4-(fluoromethoxy)phenoxy)pyridin-3-yl)sulfonyl)-2-(hydroxycarbamoyl)-3,8-diazabicyclo[3.2.1]octane-8-carboxylate], the pIC50 in test [1] (setting [6]) is 5.00 to 6.00; in test [2] (setting [7]), above 7.30; in test [3] (setting [8]), 5.00 to 6.00; in test [4] (setting [9]), above 7.30; in test [5] (setting [10]), above 7.30.

Consider `COCCOC(=O)N1[C@@H]2CC[C@H]1[C@H](C(=O)NO)N(S(=O)(=O)N1CCC(Oc3ccc(Cl)cc3)C1)C2` (stereo partly drawn) [Example 46, 2-methoxyethyl (1S,2R,5R)-3-((3-(4-chloro-phenoxy)-pyrrolidin-1-yl)-sulfonyl)-2-(hydroxy-carbamoyl)-3,8-diazabicyclo-[3.2.1]octane-8-carboxylate], for which the negative-log IC50 (pIC50) in test [1] is 6.00 to 7.30; in test [2], 6.00 to 7.30; in test [3], below 5.00; in test [4], 6.00 to 7.30; in test [5], 6.00 to 7.30.

On to `COCCOC(=O)N1[C@@H]2CC[C@H]1[C@H](C(=O)NO)N(S(=O)(=O)N1CCC(Oc3ccc(F)cc3)C1)C2` (stereo partly drawn) [Example 47, 2-methoxyethyl (1S,2R,5R)-3-((3-(4-fluoro-phenoxy)-pyrrolidin-1-yl)-sulfonyl)-2-(hydroxy-carbamoyl)-3,8-diazabicyclo-[3.2.1]octane-8-carboxylate], for which the pIC50 in test [1] was 6.00 to 7.30; in test [2], 5.00 to 6.00; in test [3] it was below 5.00; in test [4], 5.00 to 6.00; in test [5], 5.00 to 6.00.

With `COCCOC(=O)N1[C@@H]2CC[C@H]1[C@H](C(=O)NO)N(S(=O)(=O)N1CCC(Oc3ccnc(C(F)(F)F)c3)CC1)C2` [Example 49, 2-methoxyethyl (1S,2R,5R)-2-(hydroxy-carbamoyl)-3-((4-((2-(trifluoro-methyl)pyridin-4-yl)oxy)-piperidin-1-yl)-sulfonyl)-3,8-diazabicyclo-[3.2.1]octane-8-carboxylate], the pIC50 in test [1] (setting [6]) was 5.00 to 6.00; in test [2] (setting [7]) it was 6.00 to 7.30; in test [3] (setting [8]), below 5.00; in test [4] (setting [9]) it was 6.00 to 7.30; in test [5] (setting [10]) it was 6.00 to 7.30.

For the compound `CCOC(=O)N1[C@@H]2CC[C@H]1[C@H](C(=O)NO)N(S(=O)(=O)N1CCC(Oc3ccnc(C(F)(F)F)c3)CC1)C2` [Example 50, ethyl (1S,2R,5R)-2-(hydroxy-carbamoyl)-3-((4-((2-(trifluoro-methyl)pyridin-4-yl)oxy)-piperidin-1-yl)-sulfonyl)-3,8-diazabicyclo-[3.2.1]octane-8-carboxylate], the pIC50 is 5.00 to 6.00 in test [1] (setting [6]); 6.00 to 7.30 in test [2] (setting [7]); below 5.00 in test [3] (setting [8]); 6.00 to 7.30 in test [4] (setting [9]); 6.00 to 7.30 in test [5] (setting [10]).

As to `CN(C)C(=O)CN1[C@@H]2CC[C@H]1[C@H](C(=O)NO)N(S(=O)(=O)c1ccc(Oc3ccc(F)cc3)nc1)C2` [Example 51, (1S,2R,5R)-8-(2-(dimethylamino)-2-oxoethyl)-3-((6-(4-fluorophenoxy)pyridin-3-yl)sulfonyl)-N-hydroxy-3,8-diazabicyclo[3.2.1]octane-2-carboxamide], the pIC50 in test [1] (setting [6]) is below 5.00; in test [2] (setting [7]), above 7.30; in test [3] (setting [8]) it was 5.00 to 6.00; in test [4] (setting [9]), above 7.30; in test [5] (setting [10]), 6.00 to 7.30.

In the case of `O=C(NO)[C@H]1[C@@H]2CC[C@H](CN1S(=O)(=O)c1ccc(Oc3ccc(F)cc3)nc1)N2CC(=O)N1CCCC1` [Example 52, (1S,2R,5R)-3-((6-(4-fluorophenoxy)pyridin-3-yl)sulfonyl)-N-hydroxy-8-(2-oxo-2-(pyrrolidin-1-yl)ethyl)-3,8-diazabicyclo[3.2.1]octane-2-carboxamide], the pIC50 was below 5.00 in test [1] (setting [6]); above 7.30 in test [2] (setting [7]); 5.00 to 6.00 in test [3] (setting [8]); above 7.30 in test [4] (setting [9]); 6.00 to 7.30 in test [5] (setting [10]).

Turning to `CC(C)Oc1ccc(Oc2ccc(S(=O)(=O)N3C[C@H]4CC[C@@H]([C@@H]3C(=O)NO)N4C(=O)C(C)C)cn2)cc1` [Example 60, (1S,2R,5R)-N-hydroxy-8-isobutyry1-3-((6-(4-isopropoxy-phenoxy)pyridin-3-yl)sulfonyl)-3,8-diazabicyclo-[3.2.1]octane-2-carboxamide], the negative-log IC50 (pIC50) in test [1] (setting [6]) is below 5.00; in test [2] (setting [7]), above 7.30; in test [3] (setting [8]) it was 5.00 to 6.00; in test [4] (setting [9]), above 7.30; in test [5] (setting [10]), above 7.30.

As to `CC(C)Oc1ccc(Oc2ccc(S(=O)(=O)N3C[C@H]4CC[C@@H]([C@@H]3C(=O)NO)N4C(=O)C(C)(C)C)cn2)cc1` [Example 61, (1S,2R,5R)-N-hydroxy-3-((6-(4-isopropoxyphenoxy)-pyridin-3-yl)-sulfonyl)-8-pivaloyl-3,8-diazabicyclo-[3.2.1]octane-2-carboxamide], the negative logarithm of the IC50 (pIC50) in test [1] (setting [6]) is below 5.00; in test [2] (setting [7]), above 7.30; in test [3] (setting [8]) it was 5.00 to 6.00; in test [4] (setting [9]), above 7.30; in test [5] (setting [10]) it was 6.00 to 7.30.

Turning to `CC(=O)N1[C@@H]2CC[C@H]1[C@H](C(=O)NO)N(S(=O)(=O)N1CCC(Oc3ccnc(C(F)(F)F)c3)CC1)C2` [Example 64, (1S,2R,5R)-8-acetyl-N-hydroxy-3-((4-((2-(trifluoromethyl)-pyridin-4-yl)oxy)-piperidin-1-yl)-sulfonyl)-3,8-diazabicyclo[3.2.1]-octane-2-carboxamide], the pIC50 in test [1] (setting [6]) was 5.00 to 6.00; in test [2] (setting [7]), 6.00 to 7.30; in test [3] (setting [8]), 5.00 to 6.00; in test [4] (setting [9]), 6.00 to 7.30; in test [5] (setting [10]), 6.00 to 7.30.

`O=C(NO)[C@H]1[C@@H]2CC[C@H](CN1S(=O)(=O)c1ccc(Oc3ccc(F)cc3)nc1)N2C(=O)N1CCOCC1` [Example 68, (1S,2R,5R)-3-((6-(4-fluorophenoxy)pyridin-3-yl)sulfonyl)-N-hydroxy-8-(morpholine-4-carbonyl)-3,8-diazabicyclo[3.2.1]octane-2-carboxamide]: the pIC50 in test [1] (setting [6]) is 5.00 to 6.00; in test [2] (setting [7]), above 7.30; in test [3] (setting [8]), 5.00 to 6.00; in test [4] (setting [9]), above 7.30; in test [5] (setting [10]) it was 6.00 to 7.30.
